Experimental data taken from publication PMC11406361, “Several orphan solute carriers functionally identified as organic cation transporters: Substrates specificity compared with known cation transporters” (The Journal of Biological Chemistry, 2024).
Peptide text beside a SMILES is read from it.

The compounds below were run against SLC35G3 (Homo sapiens, UniProt Q8N808) (assay: Uptake ratio screen, SLC35G3-overexpressing HEK293 over empty vector cells). Details: not given.
Assay type: cell-based
Design: by amplifying the entire gene-of-interest within the HEK293 genome via a long-range PCR

Sequence of SLC35G3 (Q8N808 whole entry): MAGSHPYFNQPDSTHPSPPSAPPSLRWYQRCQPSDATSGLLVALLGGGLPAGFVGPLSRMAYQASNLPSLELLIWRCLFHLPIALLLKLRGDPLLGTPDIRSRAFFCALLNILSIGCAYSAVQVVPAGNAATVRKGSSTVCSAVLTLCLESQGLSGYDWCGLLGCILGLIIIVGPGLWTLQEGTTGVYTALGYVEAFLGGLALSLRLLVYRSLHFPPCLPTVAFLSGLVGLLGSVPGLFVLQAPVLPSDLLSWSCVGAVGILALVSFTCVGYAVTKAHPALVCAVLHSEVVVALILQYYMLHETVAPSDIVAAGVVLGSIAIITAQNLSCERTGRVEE

Going from `C[C@H](N)[C@@H](O)c1ccccc1` [Cathine ((+)-Norpseudoephedrine), (+)-Norpseudoephedrine] to `CNCC[C@H](Oc1cccc2ccccc12)c1cccs1` [Duloxetine], the “Uptake data for SLC35G3, mean value (fold-increase over empty vector control)” value rises from 1.21 to 1.26.

Compared with `COc1cc(CCN)cc(OC)c1OC` [Mescaline], `CNC1(c2ccccc2Cl)CCCCC1=O` (stereo not shown) [Ketamine] is lower in “Uptake data for SLC35G3, mean value (fold-increase over empty vector control)” value: 1.34 for the first, 1.28 for the second.

Same assay, conditions: 2.5 μM substrate, 2 min, HEK293

Compared with `C=CCN1CC[C@]23c4c5ccc(O)c4O[C@H]2C(=O)CC[C@@]3(O)[C@H]1C5` [Naloxone], `C=C1CC[C@@]2(O)[C@H]3Cc4ccc(O)c5c4[C@@]2(CCN3CC2CC2)[C@H]1O5` [Nalmefen] is lower in “Uptake data for SLC35G3, mean value (fold-increase over empty vector control)” value: 2.01 for the first, 1.99 for the second.

Going from `COc1ccc(C(CN(C)C)C2(O)CCCCC2)cc1` (stereo not shown) [Venlafaxine] to `CNCC(c1ccc(OC)cc1)C1(O)CCCCC1` (stereo not shown) [N-Desmethylvenlafaxine], the “Uptake data for SLC35G3, mean value (fold-increase over empty vector control)” value falls from 1.60 to 1.20.

First: CC(C)NCC(O)COc1ccc(COCCOC(C)C)cc1 (stereo not shown) [Bisoprolol]
Second: COCCc1ccc(OCC(O)CNC(C)C)cc1 (stereo not shown) [Metoprolol]
The “Uptake data for SLC35G3, mean value (fold-increase over empty vector control)” value of the first is lower: 1.24 for the first, 1.52 for the second.

First: CCCN(CCC)CCc1cccc2c1CC(=O)N2 [Ropinirole]
Second: CN(C)CCc1c[nH]c2ccc(C[C@H]3COC(=O)N3)cc12 [Zolmitriptan]
The “Uptake data for SLC35G3, mean value (fold-increase over empty vector control)” value of the first is higher: 1.37 for the first, 1.27 for the second.

Going from `CCN1CCCC1CNC(=O)c1cc(S(=O)(=O)CC)c(N)cc1OC` (stereo not shown) [Amisulpride] to `CCN(CC)CCNC(=O)c1cc(Cl)c(N)cc1OC` [Metoclopramide], the “Uptake data for SLC35G3, mean value (fold-increase over empty vector control)” value falls from 1.53 to 1.44.

First: COCCOC(=O)C1=C(C)NC(C)=C(C(=O)OC(C)C)C1c1cccc([N+](=O)[O-])c1 (stereo not shown) [Nimodipine]
Second: COC(=O)[C@H](Cc1ccccc1)NC(=O)[C@@H](N)CC(=O)O [Aspartame] (H-Asp-Phe-OMe)
The “Uptake data for SLC35G3, mean value (fold-increase over empty vector control)” value of the first is higher: 1.26 for the first, 0.92 for the second.

First: C[C@@H](O)[C@H]1C(=O)N2C(C(=O)O)=C(S[C@@H]3CN[C@H](C(=O)N(C)C)C3)[C@H](C)[C@H]12 [Meropenem]
Second: C=CCN1C[C@H](C(=O)N(CCCN(C)C)C(=O)NCC)C[C@@H]2c3cccc4[nH]cc(c34)C[C@H]21 [Cabergoline]
The “Uptake data for SLC35G3, mean value (fold-increase over empty vector control)” value of the first is lower: 1.27 for the first, 1.49 for the second.

Compared with `N[C@@H]1CON=C1O` [Cycloserine (L-), Cycloserine], `N[C@@H]1C[C@H]1c1ccccc1` (racemic) [Tranylcypromine] is higher in “Uptake data for SLC35G3, mean value (fold-increase over empty vector control)” value: 1.11 for the first, 2.56 for the second.

Compared with `Fc1ccc([C@@H]2CCNC[C@H]2COc2ccc3c(c2)OCO3)cc1` [Paroxetin], `NC1Cc2cc3c(cc2C1)OCO3` [MDAI, 5,6-Methylenedioxy-2-aminoindane] is higher in “Uptake data for SLC35G3, mean value (fold-increase over empty vector control)” value: 1.30 for the first, 1.71 for the second.

First: Cc1cccc(C)c1NC(=O)C1CCCCN1C (stereo not shown) [Mepivacaine]
Second: CCCCN1CCCCC1C(=O)Nc1c(C)cccc1C (stereo not shown) [Bupivacaine]
The “Uptake data for SLC35G3, mean value (fold-increase over empty vector control)” value of the first is lower: 2.30 for the first, 2.44 for the second.

Going from `CCN(C)C(=O)Oc1cccc([C@H](C)N(C)C)c1` [Rivastigmine] to `CC(NC(C)(C)C)C(=O)c1cccc(Cl)c1` (stereo not shown) [Bupropion], the “Uptake data for SLC35G3, mean value (fold-increase over empty vector control)” value falls from 1.65 to 1.29.

Going from `C[C@H]1COc2c(N3CCN(C)CC3)c(F)cc3c(=O)c(C(=O)O)cn1c23` [Levofloxacin] to `COc1c(N2C[C@@H]3CCCN[C@@H]3C2)c(F)cc2c(=O)c(C(=O)O)cn(C3CC3)c12` [Moxifloxacin], the “Uptake data for SLC35G3, mean value (fold-increase over empty vector control)” value rises from 1.05 to 1.34.

Going from `CNC[C@H](O)c1cccc(O)c1` [Phenylephrine] to `CC(Cc1ccc(O)cc1)NCC(O)c1cc(O)cc(O)c1` (stereo not shown) [Fenoterol], the “Uptake data for SLC35G3, mean value (fold-increase over empty vector control)” value rises from 1.10 to 1.19.

First: CN[C@@H]1CCc2[nH]c3ccc(C(N)=O)cc3c2C1 [Frovatriptan (R-), Frovatriptan]
Second: C[N+]1(CC2CC2)CC[C@]23c4c5ccc(O)c4O[C@H]2C(=O)CC[C@@]3(O)[C@H]1C5 (stereo partly shown) [Methylnaltrexon]
The “Uptake data for SLC35G3, mean value (fold-increase over empty vector control)” value of the first is lower: 1.06 for the first, 1.36 for the second.

Going from `C[C@H]1c2cccc(O)c2C(=O)C2=C(O)[C@]3(O)C(=O)C(C(N)=O)=C(O)[C@@H](N(C)C)[C@@H]3[C@@H](O)[C@@H]21` [Doxycycline] to `COCCn1c2c([n+](Cc3cnccn3)c1C)C(=O)c1ccccc1C2=O` [YM155], the “Uptake data for SLC35G3, mean value (fold-increase over empty vector control)” value falls from 1.34 to 1.11.

Compared with `CNCC1CCCCC1(O)c1cccc(OC)c1` (stereo not shown) [N-Desmethyltramadol], `CCOC(=O)[C@]1(c2ccccc2)CCC=C[C@H]1NC` [Nortilidine] is higher in “Uptake data for SLC35G3, mean value (fold-increase over empty vector control)” value: 1.38 for the first, 2.87 for the second.

Compared with `Cc1nc2n(c(=O)c1CCN1CCC(c3noc4cc(F)ccc34)CC1)CCCC2` [Risperidone], `O=C1c2cccc3c2[C@H](CCC3)CN1[C@@H]1CN2CCC1CC2` [Palonosetron] is lower in “Uptake data for SLC35G3, mean value (fold-increase over empty vector control)” value: 1.41 for the first, 1.36 for the second.

Going from `CN[C@@H](C)[C@H](O)c1ccccc1` [Ephedrine] to `CNCC[C@@H](Oc1ccccc1C)c1ccccc1` [Atomoxetine], the “Uptake data for SLC35G3, mean value (fold-increase over empty vector control)” value falls from 1.59 to 1.26.

First: CC(CCc1ccc(O)cc1)NCCc1ccc(O)c(O)c1 (stereo not shown) [Dobutamine]
Second: NCCc1ccc(O)cc1 [Tyramine]
The “Uptake data for SLC35G3, mean value (fold-increase over empty vector control)” value of the first is lower: 1.58 for the first, 1.61 for the second.

Going from `C[N+](C)(C)CC(=O)O` [Betaine] to `NCC1(CC(=O)O)CCCCC1` [Gabapentin], the “Uptake data for SLC35G3, mean value (fold-increase over empty vector control)” value rises from 0.84 to 0.90.

Compared with `COc1ccc2c3c1O[C@H]1C[C@@H](O)C=C[C@@]31CCN(C)C2` [Galantamine], `COc1ccc2c3c1O[C@H]1C(=O)CC[C@H]4[C@@H](C2)N(C)CC[C@]314` [Hydrocodone] is higher in “Uptake data for SLC35G3, mean value (fold-increase over empty vector control)” value: 1.57 for the first, 1.71 for the second.

First: CC[C@@H](CO)NCCN[C@@H](CC)CO [Ethambutol]
Second: CCCCNc1ccc(C(=O)OCCN(C)C)cc1 [Tetracaine]
The “Uptake data for SLC35G3, mean value (fold-increase over empty vector control)” value of the first is lower: 0.99 for the first, 1.54 for the second.

Compared with `CC(C)(C)c1ccc(C(O)CCCN2CCC(C(O)(c3ccccc3)c3ccccc3)CC2)cc1` (stereo not shown) [Terfenadine], `CN(C)CCCN1c2ccccc2CCc2ccccc21` [Imipramine] is higher in “Uptake data for SLC35G3, mean value (fold-increase over empty vector control)” value: 1.28 for the first, 1.40 for the second.

Going from `COc1ccc(CN(CCN(C)C)c2ccccn2)cc1` [Pyrilamine] to `CN(C)CCOC(C)(c1ccccc1)c1ccccn1` (stereo not shown) [Doxylamine], the “Uptake data for SLC35G3, mean value (fold-increase over empty vector control)” value falls from 1.74 to 1.10.

Compared with `CC(C)NCC(O)COc1cccc2ccccc12` (stereo not shown) [Propranolol], `CCOc1ccccc1OCCN[C@H](C)Cc1ccc(OC)c(S(N)(=O)=O)c1` [Tamsulosin] is higher in “Uptake data for SLC35G3, mean value (fold-increase over empty vector control)” value: 1.27 for the first, 1.39 for the second.

First: COc1ccc(OC)c(C(O)CNC(=O)CN)c1 (stereo not shown) [Midodrine]
Second: COc1ccc2c(c1)N(C[C@H](C)CN(C)C)c1ccccc1S2 [Levomepromazine]
The “Uptake data for SLC35G3, mean value (fold-increase over empty vector control)” value of the first is higher: 1.33 for the first, 1.30 for the second.

Compared with `NC(=O)C1(N2CCCCC2)CCN(CCCC(=O)c2ccc(F)cc2)CC1` [Pipamperone], `O=C(CCCN1CCC(O)(c2ccc(Cl)cc2)CC1)c1ccc(F)cc1` [Haloperidol] is higher in “Uptake data for SLC35G3, mean value (fold-increase over empty vector control)” value: 1.33 for the first, 1.47 for the second.

First: COc1cc2nc(N3CCN(C(=O)C4CCCO4)CC3)nc(N)c2cc1OC (stereo not shown) [Terazosin]
Second: COc1cc(Cc2cnc(N)nc2N)cc(OC)c1OC [Trimethoprim]
The “Uptake data for SLC35G3, mean value (fold-increase over empty vector control)” value of the first is higher: 1.49 for the first, 1.24 for the second.

Going from `OCCOCCN1CCN(C2=Nc3ccccc3Sc3ccccc32)CC1` [Quetiapine] to `CN1CCN(C2=Nc3cc(Cl)ccc3Nc3ccccc32)CC1` [Clozapine], the “Uptake data for SLC35G3, mean value (fold-increase over empty vector control)” value rises from 1.37 to 1.44.

Going from `O=C1CCc2ccc(OCCCCN3CCN(c4cccc(Cl)c4Cl)CC3)cc2N1` [Aripiprazole] to `COc1ccccc1N1CCN(CCCNc2cc(=O)n(C)c(=O)n2C)CC1` [Urapidil], the “Uptake data for SLC35G3, mean value (fold-increase over empty vector control)” value rises from 1.22 to 1.37.

Compared with `OC(CCN1CCCCC1)(c1ccccc1)C1CC2C=CC1C2` (stereo not shown) [Biperiden], `O=C(O[C@H]1CN2CCC1CC2)N1CCc2ccccc2[C@@H]1c1ccccc1` [Solifenacin] is lower in “Uptake data for SLC35G3, mean value (fold-increase over empty vector control)” value: 1.50 for the first, 1.26 for the second.

First: CNCCCN1c2ccccc2CCc2ccccc21 [Desipramine]
Second: CN(C)CCC=C1c2ccccc2CCc2ccccc21 [Amitriptyline]
The “Uptake data for SLC35G3, mean value (fold-increase over empty vector control)” value of the first is lower: 1.31 for the first, 1.47 for the second.

Compared with `CC12CC3CC(C)(C1)CC(N)(C3)C2` [Memantine], `CCN(CC)C(=O)C1(c2ccccc2)CC1CN` (stereo not shown) [Milnacipran] is higher in “Uptake data for SLC35G3, mean value (fold-increase over empty vector control)” value: 1.19 for the first, 1.31 for the second.

First: N[C@@H]1CON=C1O [Cycloserine (D-), Cycloserine]
Second: C#CCN[C@@H]1CCc2ccccc21 [Rasagiline]
The “Uptake data for SLC35G3, mean value (fold-increase over empty vector control)” value of the first is lower: 0.93 for the first, 1.90 for the second.

In the case of `O=C1CC2(CCCC2)CC(=O)N1CCCCN1CCN(c2ncccn2)CC1` [Buspirone], the “Uptake data for SLC35G3, mean value (fold-increase over empty vector control)” value is reported as 1.72.
